We go through 4 compounds from US6303630A, “Diarylsulfone non-nucleoside reverse transcriptase inhibitors of human immunodeficiency virus” (University of the Sciences in Philadelphia, priority 2000, dated 2001).

The test system of experiment [1] is HIV-1. Particulars: Artico et al. 1995; cited from earlier work.
Experiment [2] relates to HIV-1 reverse transcriptase. Particulars: McMahon et al. 1993; cited from earlier work.
For experiment [3], the system named is HIV-1. Particulars: in vitro, McMahon et al. 1993; cited from earlier work.
Experiment [4] concerns T4 lymphocytes (CEM cell line). The experiment can be described thus: Cell growth / toxicity control in uninfected T4 lymphocytes (CEM), XTT-formazan. The format is cell-based. Particulars: for IC50: uninfected CEM cells, 6 days, XTT, approximate values, read-out: IC50 (50% inhibitory concentration for cell growth). In short, it runs like this: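 Toxicity control: compound, first dissolved in DMSO and serially diluted half-log10 to a final 1:200 dilution, incubated 6 days at 37° and 5% CO2 with CEM cells lacking HIV-1. Viable cells measured spectrophotometrically via XTT-derived formazan and checked microscopically.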

The subject of experiment [5] is HIV-1. The experiment can be described thus: NCI in vitro anti-HIV drug screen: XTT-formazan assay, protection of T4 lymphocytes (CEM) from HIV-1 cytopathic effects. The class given is cell-based, human immunodeficiency virus (HIV-1). Particulars: for TI50 (IC/EC), Therapeutic Index: IC50/EC50. In short, it runs like this: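 Protection from HIV-1 cytopathic killing was read spectrophotometrically via XTT formazan from viable cells after 6-day culture (37°, 5% CO2) of infected CEM cells with compound in half-log10 dilutions; drug-treated uninfected cells served as toxicity controls, AZT run alongside.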

SMILES strings stand for the structures. Like-named read-outs stand apart in the source and are kept apart here.

`CCOC(=O)c1cccn1S(=O)(=O)c1ccccc1[N+](=O)[O-]`: the anti-HIV-1 efficacy entry in the experiment on HIV-1 [1] is listed as “the most efficacy”.
Turning to `O=[N+]([O-])c1ccccc1S(=O)(=O)c1ccccc1` [2-nitrophenyl phenylsulfone], the “inhibition of HIV-1 replication via inhibition of HIV-1 reverse transcriptase” value in experiment [2] is recorded as “inhibition of HIV-1 replication via inhibition of HIV-1 reverse transcriptase”. In addition, in the experiment on HIV-1 [3], the “protecting human cells in culture from HIV-1 cytopathic effects / preventing HIV-1 replication” value is “high efficacy”.
Turning to `CNc1ccccc1S(=O)(=O)c1ccc(Cl)cc1OC` [Compound 86, 2-(4-chloro-2-methoxyphenylsulfonyl)-N-methylaniline], the IC50 in experiment [4] (Homo sapiens, CCRF-CEM, 144 h) is > 200 µM. The activity at 200 µM in experiment [4] (Homo sapiens, CCRF-CEM, dose 2.00 × 10^-4 Molar, read-out: Percent of Control, Uninfected) stood at 83.9%; in the experiment on HIV-1 [5] (Human immunodeficiency virus 1, Lymphocyte, dose 2.00 × 10^-4 Molar, read-out: Percent of Control, Infected), 79.2%. In addition, the activity at 20 µM came out at 88.3% in experiment [4] (Homo sapiens, CCRF-CEM, dose 2.00 × 10^-5 Molar, read-out: Percent of Control, Uninfected) and 7.21% in the experiment on HIV-1 [5] (Human immunodeficiency virus 1, Lymphocyte, dose 2.00 × 10^-5 Molar, read-out: Percent of Control, Infected). Further, the activity at 2 µM in experiment [4] (Homo sapiens, CCRF-CEM, dose 2.00 × 10^-6 Molar, read-out: Percent of Control, Uninfected) worked out at 96.5%; in the experiment on HIV-1 [5] (Human immunodeficiency virus 1, Lymphocyte, dose 2.00 × 10^-6 Molar, read-out: Percent of Control, Infected), 2.35%. Also, the activity at 0.2 µM in experiment [4] (Homo sapiens, CCRF-CEM, dose 2.00 × 10^-7 Molar, read-out: Percent of Control, Uninfected) came out at 91.7%; in the experiment with HIV-1 [5] (Human immunodeficiency virus 1, Lymphocyte, dose 2.00 × 10^-7 Molar, read-out: Percent of Control, Infected), 3.16%. For the same compound, the activity at 63.2 µM was found to be 95.9% in experiment [4] (Homo sapiens, CCRF-CEM, dose 6.32 × 10^-5 Molar, read-out: Percent of Control, Uninfected) and 28.5% in the experiment with HIV-1 [5] (Human immunodeficiency virus 1, Lymphocyte, dose 6.32 × 10^-5 Molar, read-out: Percent of Control, Infected). Besides, the activity at 6.33 µM came to 94.8% in experiment [4] (Homo sapiens, CCRF-CEM, dose 6.33 × 10^-6 Molar, read-out: Percent of Control, Uninfected) and 3.49% in the experiment on HIV-1 [5] (Human immunodeficiency virus 1, Lymphocyte, dose 6.33 × 10^-6 Molar, read-out: Percent of Control, Infected). Moreover, the activity at 0.634 µM in experiment [4] (Homo sapiens, CCRF-CEM, dose 6.34 × 10^-7 Molar, read-out: Percent of Control, Uninfected) came to 97.1%; with HIV-1 [5] (Human immunodeficiency virus 1, Lymphocyte, dose 6.34 × 10^-7 Molar, read-out: Percent of Control, Infected) it was 3.2%. Moreover, the activity at 0.0635 µM in experiment [4] (Homo sapiens, CCRF-CEM, dose 6.35 × 10^-8 Molar, read-out: Percent of Control, Uninfected) came out at 95.8%; in the experiment on HIV-1 [5] (Human immunodeficiency virus 1, Lymphocyte, dose 6.35 × 10^-8 Molar, read-out: Percent of Control, Infected), 2.03%. Also, in the experiment on HIV-1 [5] (Human immunodeficiency virus 1, CCRF-CEM, 144 h, HIV-1 infected CEM cells, 6 days, XTT, approximate values, read-out: EC50 (50% effective concentration against HIV cytopathic effects)), the EC50 was 106 µM. In addition, the inhibition at 200 µM in the experiment with HIV-1 [5] (Human immunodeficiency virus 1, CCRF-CEM, dose 2.00 × 10^-4 Molar, read-out: Percent of Protection) came to 78.8%. In addition, the inhibition at 20 µM with HIV-1 [5] (Human immunodeficiency virus 1, CCRF-CEM, dose 2.00 × 10^-5 Molar, read-out: Percent of Protection) stood at 5.32%. Also, the inhibition at 2 µM in the experiment with HIV-1 [5] (Human immunodeficiency virus 1, CCRF-CEM, dose 2.00 × 10^-6 Molar, read-out: Percent of Protection) was 0.36%. Moreover, the inhibition at 0.2 µM in the experiment with HIV-1 [5] (Human immunodeficiency virus 1, CCRF-CEM, dose 2.00 × 10^-7 Molar, read-out: Percent of Protection) amounted to 1.18%. In the experiment on HIV-1 [5] (Human immunodeficiency virus 1, CCRF-CEM, dose 6.32 × 10^-5 Molar, read-out: Percent of Protection), the inhibition at 63.2 µM came to 27.1%. Also, the inhibition at 6.33 µM in the experiment with HIV-1 [5] (Human immunodeficiency virus 1, CCRF-CEM, dose 6.33 × 10^-6 Molar, read-out: Percent of Protection) worked out at 1.52%. The inhibition at 0.634 µM in the experiment on HIV-1 [5] (Human immunodeficiency virus 1, CCRF-CEM, dose 6.34 × 10^-7 Molar, read-out: Percent of Protection) was determined as 1.22%. For the same compound, the inhibition at 0.0635 µM in the experiment on HIV-1 [5] (Human immunodeficiency virus 1, CCRF-CEM, dose 6.35 × 10^-8 Molar, read-out: Percent of Protection) is 0.03%. Further, the “TI50 (IC/EC), Therapeutic Index” value in the experiment with HIV-1 [5] is reported as > 1.88 × 10^0.
For the compound `CNc1ccccc1S(=O)(=O)c1ccccc1[N+](=O)[O-]` [Example 22, 2-(2-nitrophenylsulfonyl)-N-methylaniline], the “Percent of Control, Uninfected” value in experiment [4] (dose 2.00 × 10^-4 Molar) came out at 1.98%; in experiment [4] (dose 2.00 × 10^-5 Molar), 36.62%; in experiment [4] (dose 2.00 × 10^-6 Molar), 88.74%; in experiment [4] (dose 2.00 × 10^-7 Molar), 92.07%; in experiment [4] (dose 6.32 × 10^-5 Molar), 15.40%; in experiment [4] (dose 6.33 × 10^-6 Molar) it was 87.28%. Moreover, the “Percent of Control, Uninfected” value was found to be 97.06% in experiment [4] (dose 6.34 × 10^-7 Molar) and 96.33% in experiment [4] (dose 6.35 × 10^-8 Molar). Moreover, the IC50 in experiment [4] is 14.8 µM. Moreover, the “TI50 (IC/EC), Therapeutic Index” value in the experiment on HIV-1 [5] was 1.80 × 10^+2. For the same compound, the “Percent of Control, Infected” value amounted to 6.35% in the experiment on HIV-1 [5] (dose 2.00 × 10^-4 Molar); 43.49% with HIV-1 [5] (dose 2.00 × 10^-5 Molar); 107.31% in the experiment on HIV-1 [5] (dose 2.00 × 10^-6 Molar); 99.97% in the experiment with HIV-1 [5] (dose 2.00 × 10^-7 Molar); 5.67% with HIV-1 [5] (dose 6.32 × 10^-5 Molar); 100.65% in the experiment with HIV-1 [5] (dose 6.33 × 10^-6 Molar). The “Percent of Control, Infected” value in the experiment on HIV-1 [5] (dose 6.34 × 10^-7 Molar) stood at 110.38%; with HIV-1 [5] (dose 6.35 × 10^-8 Molar), 88.79%. Moreover, the “Percent of Protection” value in the experiment on HIV-1 [5] (dose 2.00 × 10^-4 Molar, 200 µM) is recorded as 1.42%; in the experiment with HIV-1 [5] (dose 2.00 × 10^-5 Molar, 20 µM), 40.52%; in the experiment on HIV-1 [5] (dose 2.00 × 10^-6 Molar, 2 µM), 107.69%; with HIV-1 [5] (dose 2.00 × 10^-7 Molar, 0.2 µM) it was 99.97%; with HIV-1 [5] (dose 6.32 × 10^-5 Molar, 63.2 µM) it was 0.71%; in the experiment with HIV-1 [5] (dose 6.33 × 10^-6 Molar, 6.33 µM), 100.68%. Besides, the “Percent of Protection” value is on record as 110.93% in the experiment with HIV-1 [5] (dose 6.34 × 10^-7 Molar, 0.634 µM) and 88.20% in the experiment on HIV-1 [5] (dose 6.35 × 10^-8 Molar, 0.0635 µM).
